Experimental data: patent US20070129439A1, “COMPOSITIONS CONTAINING SUBSTITUTED QUINOLINES AND SUBSTITUTED DIPHENYL SULFONES AND METHODS OF USE” (priority 2003, published 2007)

Tested on: neurons
Assay: % neuron loss for test agents in a rat model with Alzheimer's disease (FIG. 1)
Assay type: in vivo
Details: rat model with AD
From the text: FIG. 1 is a plot of % neuron loss for several test agents in a rat model with Alzheimer's disease (AD).

SMILES	% neuron loss (killing effect) (dapsone alone at 2 mg/kg)	% neuron loss (killing effect) (hydroxychloroquine alone at 6.5 mg/kg)
Nc1ccc(S(=O)(=O)c2ccc(N)cc2)cc1 [dapsone, 4,4′-diaminodiphenylsulfone]	suppression of the in vitro killing effect	
CCN(CCO)CCCC(C)Nc1ccnc2cc(Cl)ccc12 (centres unmarked) [hydroxychloroquine]		suppression of the in vitro killing effect
